# Experimental data as given in patent publication US20080145313A1, “Compositions and Methods for the Treatment and Prevention of Neoplastic Disorders” (Genesis Research & Development Corporation Limited, priority 2006, published 2008).
# Marks after values point to notes of the source that are not given here.
# How the values were obtained:
# [1] = tested on: target transcript mRNA in A549 cells; assay: Level of mRNA of target transcript in A549 cells by quantitative RT-PCR (Tables 12 and 13); format: cell-based, human; conditions: 24 h post-transfection; for mRNA knockdown of transporter gene target transcript, 10 nM: 10 nM siRNA
# How it was run: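 Target mRNA was measured by SYBR Green quantitative RT-PCR using random-primed cDNA, normalised to HPRT and Lamin. Samples came from A549 cells 24 h post-transfection with 0.1, 1.0 or 10 nM siRNA.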
# [2] = tested on: wt HCT-116 cells; assay: Growth inhibition of siRNA-transfected wt HCT-116 cells, SYBR Green I DNA content; format: cell-based; conditions: standardized against control siRNA
# Procedure: (§1) A549 cells (human lung cancer cell line; ATCC No. CCL-185), SK-MeI-5 cells (human melanoma cell line; ATCC No. HTB-70), MCF-7 cells (human adenocarcinoma cell line; ATCC No. HTB-22), HCT-116 cells (colorectal carcinoma; ATCC CCL-247) and HCT-116 p53 null cells (derived from ATCC No. CCL-247; Bunz et al., Science 282:1497-1501, 1998) were cultured in RPMI 1640 medium with 10% v/v heat-inactivated fetal calf serum (FCS). Cells were seeded at a density of 5×10^4 cells/cm^2 in multi-well tissue culture plates. Sequences of Stealth™ siRNA duplexes (Invitrogen) targeting human ribonucleotide reductase subunit 1 (SEQ ID NO: 22) and subunit 2 (SEQ ID NO; 38) are given in SEQ ID NO: 4830-4832 (DNA), and SEQ ID NO: 5136-5138 (RNA) for RRM1, and SEQ ID NO: 5306-5308 (DNA), and SEQ ID NO: 5303-5305 (RNA) for RRM2. siRNAs were transfected at different concentrations into cells using Lipofectamine™ RNAiMAX transfection reagent (Invitrogen). Non-specific siRNA (SEQ ID NO: 4804 and 4805 (DNA), and SEQ ID NO: 5301 and 5302 (RNA)) were used as controls. The cellular DNA content was measured using a SYBR Green I-based fluorometric assay at 24, 48, 72 and 96 hours after transfection (120 hours for the MCF-7 cells), as follows. At the indicated time points following reverse transfection, cells were harvested and frozen at −80° C. overnight. Cells were thawed and cell lysis buffer (phosphate-buffered saline (PBS) containing 1% Triton X-100, pH 7) and SYBR Green I (1:10^5 V/V; Invitrogen) was added to the wells and incubated overnight in the dark at 4° C.
# (§2) The following day, cell lysates were mixed thoroughly, and DNA fluorescence was measured with a Wallac Victor^2 plate reader (Turku, Finland) set at an excitation frequency of 485 nm and measuring emission at 535 nm.
# (§3) To determine the effect of the p53-status of cells on RRM1 and RRM2 knockdown, growth inhibition of wild type (wt) HCT-116 and p53 null HCT-116 cells by RRM1 and RRM2-targeted siRNA were determined. Cells were reverse transfected with 1.0 and 10 nM RRM1-3 (SEQ ID NO: 4832 (DNA), and SEQ ID NO: 5138 (RNA)), 1.0 and 10 nM RRM2-2 (SEQ ID NO: 5307 (DNA), and SEQ ID NO: 5304 (RNA)) or 10 nM control siRNA (SEQ ID NO: 4804 (DNA), and SEQ ID NO: 5301 (RNA)), and growth measured daily for up to 4 days post transfection.
# (§4) siRNA-mediated RNAi was also determined on a panel of different cell lines. A549, SK-MeI-5, wt HCT-116, HCT-116−/−p53 and MCF-7 cells were transfected with 10 nM siRNAs targeting YBX-1 and growth inhibition determined as described above. The YBX1 siRNAs are given in SEQ ID NO: 4981 to 4985 (DNA) and SEQ ID NO: 5276-5280 (RNA). A non-specific siRNA (SEQ ID NO: 4804 (DNA) and SEQ ID NO: 5301 (RNA)) was used as control. Growth inhibition by the siRNAs, given in Table 14, was standardized against the inhibition obtained with the control siRNA.
# HCT-116 and A549 cells were transfected with 0.1, 1.0 and 10 nM siRNA targeting TYMS and DHFR (SEQ ID NO: 4833 to 4838 (DNA), and SEQ ID NO: 5139-5144 (RNA)) using Lipofectamine™ RNAiMAX and incubated for 96 h, in either normal fetal calf serum or serum dialyzed to remove low molecular weight molecules (cut-off 10 kDa). Growth of cells was measured by measuring the total DNA content per well using the SYBR Green assay as described above, and values are given as the percentage of the averaged control values. […] Inhibition increased with increasing siRNA concentration, which was not observed with a non-specific control siRNA. […]
# [3] = tested on: HCT-116 p53 null cells; assay: Growth inhibition of siRNA-transfected p53 null HCT-116 cells, SYBR Green I DNA content; format: cell-based; conditions: for growth inhibition, HCT-116 −/−p53 cells: standardized against control siRNA
# Procedure: as §1, §2, §3, §4
Substance,"mRNA knockdown of transporter gene target transcript, 0.1 nM ([1]; 0.1 nM siRNA)","mRNA knockdown of transporter gene target transcript, 1 nM ([1]; 1 nM siRNA)","mRNA knockdown of transporter gene target transcript, 10 nM [1]","growth inhibition, wt HCT-116 cells ([2]; 1 nM siRNA)","growth inhibition, HCT-116 −/−p53 cells ([3]; 1 nM siRNA)",also measured
SEQ ID NO: 4924: siRNA targeting SLC16A1 (MCT1) (chain 1 TTAGACTTATCTTTCCCTGCCTTGG; chain 2 UUAGACUUAUCUUUCCCUGCCUUGG; chemistry not given here; one strand in two spellings),+ (50-70% mRNA knockdown),++ (70-90% mRNA knockdown),++ (70-90% mRNA knockdown),–,–,–
SEQ ID NO: 4932: siRNA targeting SLC29A1 (ENT1) (chain 1 TGATAAAGTAGCCGAAGGCACTTTC; chain 2 UGAUAAAGUAGCCGAAGGCACUUUC; chemistry not given here; one strand in two spellings),++ (70-90% mRNA knockdown),++ (70-90% mRNA knockdown),++ (70-90% mRNA knockdown),–,–,–
SEQ ID NO: 4982: siRNA targeting YBX1 (chain 1 TTTGCTGGTAATTGCGTGGAGGACC; chain 2 UUUGCUGGUAAUUGCGUGGAGGACC; chemistry not given here; one strand in two spellings),–,–,–,–,–,"growth inhibition, wt HCT-116 cells ([2]; 10 nM siRNA): +++ (At least 70% inhibition); growth inhibition, HCT-116 −/−p53 cells ([3]; 10 nM siRNA): +++ (At least 70% inhibition)"
SEQ ID NO: 4984: siRNA targeting YBX1 (chain 1 CAAGGTAGACCAGTGAGGCAGAATA; chain 2 CAAGGUAGACCAGUGAGGCAGAAUA; chemistry not given here; one strand in two spellings),–,–,–,+* (At least 20% inhibition),+* (At least 20% inhibition),–
SEQ ID NO: 4985: siRNA targeting YBX1 (chain 1 CAGCCTAGAGAGGACGGCAATGAAG; chain 2 CAGCCUAGAGAGGACGGCAAUGAAG; chemistry not given here; one strand in two spellings),–,–,–,−* (No inhibition),−* (No inhibition),–
"SEQ ID NO: 5307: Stealth siRNA targeting RRM2 (chain 1 AATTCATCCCAATGAGCTTCACAGG; chain 2 AAUUCAUCCCAAUGAGCUUCACAGG; Stealth siRNA, chemical pattern not given here; one strand in two spellings)",–,–,–,–,–,"growth inhibition, p53 null HCT-116 ([3]; 1.0 and 10 nM siRNA, up to 4 days, compared with p53 wt): more growth inhibitory; mRNA knockdown of energy and metabolism gene target transcript, 0.1 nM ([1]; 0.1 nM siRNA): + (50-70% mRNA knockdown); mRNA knockdown of energy and metabolism gene target transcript, 1 nM ([1]; 1 nM siRNA): ++ (70-90% mRNA knockdown)"
